# Measured values published in US7989649B2, “Tumor imaging compounds” (Emory University, priority 2002, dated 2011).
# Assay: Rodent biodistribution study in normal Fischer rats
# Format: in vivo, rat
# Settings: for Tissue distribution of radioactivity, Blood / Tissue distribution of radioactivity, Bone / Tissue distribution of radioactivity, Brain / Tissue distribution of radioactivity, Heart / Tissue distribution of radioactivity, Kidney / Tissue distribution of radioactivity, Liver / Tissue distribution of radioactivity, Lung / Tissue distribution of radioactivity, Muscle / Tissue distribution of radioactivity, Pancreas / Tissue distribution of radioactivity, Spleen / Tissue distribution of radioactivity, Testis: normal Fischer rats; for brain uptake of radioactivity: all time points
# Description: Rodent biodistribution studies. The same procedures were used to evaluate [^18F]5a and [^18F]5b separately in rodents. The tissue distribution of radioactivity was determined in 16 normal male Fischer 344 rats (200-250 g) after intravenous injection of ˜85 μCi of [^18F]5a or [^18F]5b in 0.3 mL of sterile water. The animals were allowed food and water ad libitum before the experiment. Following anesthesia induced with an intramuscular injection of 0.1 mL/100 g of a 1:1 ketamine ([…]):xylazine (20 mg/mL) solution, the radiolabeled amino acid was injected into the rats via tail vein catheters. Groups of four rats were killed at 5 minutes, 30 minutes, 60 minutes and 120 minutes after injection of the dose. The animals were dissected, and selected tissues were weighed and counted along with dose standards in a Packard Cobra II Auto-Gamma Counter. The raw counts were decay corrected, and the counts were normalized as the percent of total injected dose per gram of tissue (% ID/g). A comparison of the uptake of activity in the tissues at each time point was analyzed using a 1-way ANOVA (GraphPad Prism software package).
# [1] = 5 min after injection, listed as [^18F]FAMP (5a)
# [2] = 120 min after injection, listed as [^18F]FAMP (5a)
# [3] = 5 min after injection, listed as [^18F]N-MeFAMP (5b)
structure (smiles),measurement,setting,value
"CC(N)(CF)C(=O)O (racemic) [[^18F]5a, 2-amino-3-fluoro-2-methylpropanoic acid]","Tissue distribution of radioactivity, Blood",5 min after injection,0.53 ± 0.03 percent dose per gram
same,"Tissue distribution of radioactivity, Bone",5 min after injection,0.27 ± 0.005 percent dose per gram
same,"Tissue distribution of radioactivity, Brain",5 min after injection,0.04 ± 0.003 percent dose per gram
same,"Tissue distribution of radioactivity, Heart",5 min after injection,0.29 ± 0.012 percent dose per gram
same,"Tissue distribution of radioactivity, Kidney",5 min after injection,6.36 percent dose per gram
same,"Tissue distribution of radioactivity, Liver",5 min after injection,0.65 percent dose per gram
same,"Tissue distribution of radioactivity, Lung",5 min after injection,0.55 ± 0.006 percent dose per gram
same,"Tissue distribution of radioactivity, Muscle",5 min after injection,0.22 ± 0.013 percent dose per gram
same,"Tissue distribution of radioactivity, Pancreas",5 min after injection,3.46 percent dose per gram
same,"Tissue distribution of radioactivity, Spleen",5 min after injection,0.83 ± 0.05 percent dose per gram
same,"Tissue distribution of radioactivity, Testis",5 min after injection,0.17 ± 0.010 percent dose per gram
same,"Tissue distribution of radioactivity, Kidney",[1],6.36 ± 0.36 percent dose per gram
same,"Tissue distribution of radioactivity, Liver",[1],0.65 ± 0.05 percent dose per gram
same,"Tissue distribution of radioactivity, Pancreas",[1],3.46 ± 0.19 percent dose per gram
same,"Tissue distribution of radioactivity, Blood",30 min after injection,0.25 ± 0.014 percent dose per gram
same,"Tissue distribution of radioactivity, Bone",30 min after injection,0.22 ± 0.02 percent dose per gram
same,"Tissue distribution of radioactivity, Brain",30 min after injection,0.05 ± 0.004 percent dose per gram
same,"Tissue distribution of radioactivity, Heart",30 min after injection,0.29 ± 0.04 percent dose per gram
same,"Tissue distribution of radioactivity, Kidney",30 min after injection,5.59 ± 0.28 percent dose per gram
same,"Tissue distribution of radioactivity, Liver",30 min after injection,0.56 ± 0.04 percent dose per gram
same,"Tissue distribution of radioactivity, Lung",30 min after injection,0.54 ± 0.12 percent dose per gram
same,"Tissue distribution of radioactivity, Muscle",30 min after injection,0.22 ± 0.009 percent dose per gram
same,"Tissue distribution of radioactivity, Pancreas",30 min after injection,2.93 ± 0.20 percent dose per gram
same,"Tissue distribution of radioactivity, Spleen",30 min after injection,0.54 ± 0.03 percent dose per gram
same,"Tissue distribution of radioactivity, Testis",30 min after injection,0.10 ± 0.006 percent dose per gram
same,"Tissue distribution of radioactivity, Blood",60 min after injection,0.22 ± 0.02 percent dose per gram
same,"Tissue distribution of radioactivity, Bone",60 min after injection,0.19 ± 0.03 percent dose per gram
same,"Tissue distribution of radioactivity, Brain",60 min after injection,0.06 ± 0.004 percent dose per gram
same,"Tissue distribution of radioactivity, Heart",60 min after injection,0.28 ± 0.013 percent dose per gram
same,"Tissue distribution of radioactivity, Kidney",60 min after injection,4.74 ± 0.15 percent dose per gram
same,"Tissue distribution of radioactivity, Liver",60 min after injection,0.50 ± 0.013 percent dose per gram
same,"Tissue distribution of radioactivity, Lung",60 min after injection,0.44 ± 0.05 percent dose per gram
same,"Tissue distribution of radioactivity, Muscle",60 min after injection,0.26 ± 0.02 percent dose per gram
same,"Tissue distribution of radioactivity, Pancreas",60 min after injection,2.95 ± 0.27 percent dose per gram
same,"Tissue distribution of radioactivity, Spleen",60 min after injection,0.50 ± 0.04 percent dose per gram
same,"Tissue distribution of radioactivity, Testis",60 min after injection,0.12 ± 0.006 percent dose per gram
same,"Tissue distribution of radioactivity, Blood",120 min after injection,0.15 ± 0.005 percent dose per gram
same,"Tissue distribution of radioactivity, Bone",120 min after injection,0.13 ± 0.012 percent dose per gram
same,"Tissue distribution of radioactivity, Brain",120 min after injection,0.05 ± 0.001 percent dose per gram
same,"Tissue distribution of radioactivity, Heart",120 min after injection,0.23 ± 0.03 percent dose per gram
same,"Tissue distribution of radioactivity, Kidney",120 min after injection,2.97 percent dose per gram
same,"Tissue distribution of radioactivity, Liver",120 min after injection,0.48 percent dose per gram
same,"Tissue distribution of radioactivity, Lung",120 min after injection,0.37 ± 0.10 percent dose per gram
same,"Tissue distribution of radioactivity, Muscle",120 min after injection,0.19 ± 0.003 percent dose per gram
same,"Tissue distribution of radioactivity, Pancreas",120 min after injection,2.48 percent dose per gram
same,"Tissue distribution of radioactivity, Spleen",120 min after injection,0.33 ± 0.02 percent dose per gram
same,"Tissue distribution of radioactivity, Testis",120 min after injection,0.10 ± 0.004 percent dose per gram
same,"Tissue distribution of radioactivity, Kidney",[2],2.97 ± 0.17 percent dose per gram
same,"Tissue distribution of radioactivity, Liver",[2],0.48 ± 0.03 percent dose per gram
same,"Tissue distribution of radioactivity, Pancreas",[2],2.48 ± 0.03 percent dose per gram
same,"uptake of radioactivity in heart, lung, bone, blood, muscle and testis","normal rats, 5 minutes",< 0.55 % ID/g
same,brain uptake of radioactivity,normal rats,approximately 0.05 % ID/g
"CNC(C)(CF)C(=O)O (racemic) [[^18F]5b, 3-fluoro-2-methyl-2-(methylamino)propanoic acid]","Tissue distribution of radioactivity, Blood",5 min after injection,0.61 ± 0.02 percent dose per gram
same,"Tissue distribution of radioactivity, Bone",5 min after injection,0.34 ± 0.04 percent dose per gram
same,"Tissue distribution of radioactivity, Brain",5 min after injection,0.04 ± 0.005 percent dose per gram
same,"Tissue distribution of radioactivity, Heart",5 min after injection,0.22 ± 0.01 percent dose per gram
same,"Tissue distribution of radioactivity, Kidney",5 min after injection,8.12 percent dose per gram
same,"Tissue distribution of radioactivity, Liver",5 min after injection,0.79 ± 0.06 percent dose per gram
same,"Tissue distribution of radioactivity, Lung",5 min after injection,0.53 ± 0.03 percent dose per gram
same,"Tissue distribution of radioactivity, Muscle",5 min after injection,0.16 ± 0.008 percent dose per gram
same,"Tissue distribution of radioactivity, Pancreas",5 min after injection,2.73 percent dose per gram
same,"Tissue distribution of radioactivity, Spleen",5 min after injection,0.44 ± 0.06 percent dose per gram
same,"Tissue distribution of radioactivity, Testis",5 min after injection,0.17 ± 0.004 percent dose per gram
same,"Tissue distribution of radioactivity, Kidney",[3],8.12 ± 0.62 percent dose per gram
same,"Tissue distribution of radioactivity, Pancreas",[3],2.73 ± 0.28 percent dose per gram
same,"Tissue distribution of radioactivity, Blood",30 min after injection,0.30 ± 0.003 percent dose per gram
same,"Tissue distribution of radioactivity, Bone",30 min after injection,0.32 ± 0.04 percent dose per gram
same,"Tissue distribution of radioactivity, Brain",30 min after injection,0.04 ± 0.004 percent dose per gram
same,"Tissue distribution of radioactivity, Heart",30 min after injection,0.23 ± 0.03 percent dose per gram
same,"Tissue distribution of radioactivity, Kidney",30 min after injection,4.60 ± 0.70 percent dose per gram
same,"Tissue distribution of radioactivity, Liver",30 min after injection,0.72 ± 0.09 percent dose per gram
same,"Tissue distribution of radioactivity, Lung",30 min after injection,0.50 ± 0.07 percent dose per gram
same,"Tissue distribution of radioactivity, Muscle",30 min after injection,0.16 ± 0.003 percent dose per gram
same,"Tissue distribution of radioactivity, Pancreas",30 min after injection,3.00 ± 0.23 percent dose per gram
same,"Tissue distribution of radioactivity, Spleen",30 min after injection,0.75 ± 0.06 percent dose per gram
same,"Tissue distribution of radioactivity, Testis",30 min after injection,0.11 ± 0.005 percent dose per gram
same,"Tissue distribution of radioactivity, Blood",60 min after injection,0.18 ± 0.02 percent dose per gram
same,"Tissue distribution of radioactivity, Bone",60 min after injection,0.29 ± 0.04 percent dose per gram
same,"Tissue distribution of radioactivity, Brain",60 min after injection,0.03 ± 0.003 percent dose per gram
same,"Tissue distribution of radioactivity, Heart",60 min after injection,0.20 ± 0.02 percent dose per gram
same,"Tissue distribution of radioactivity, Kidney",60 min after injection,2.73 ± 0.35 percent dose per gram
same,"Tissue distribution of radioactivity, Liver",60 min after injection,0.78 ± 0.10 percent dose per gram
same,"Tissue distribution of radioactivity, Lung",60 min after injection,0.38 ± 0.07 percent dose per gram
same,"Tissue distribution of radioactivity, Muscle",60 min after injection,0.15 ± 0.007 percent dose per gram
same,"Tissue distribution of radioactivity, Pancreas",60 min after injection,3.24 ± 0.30 percent dose per gram
same,"Tissue distribution of radioactivity, Spleen",60 min after injection,0.68 ± 0.02 percent dose per gram
same,"Tissue distribution of radioactivity, Testis",60 min after injection,0.08 ± 0.005 percent dose per gram
same,"Tissue distribution of radioactivity, Blood",120 min after injection,0.10 ± 0.007 percent dose per gram
same,"Tissue distribution of radioactivity, Bone",120 min after injection,0.20 ± 0.02 percent dose per gram
same,"Tissue distribution of radioactivity, Brain",120 min after injection,0.03 ± 0.001 percent dose per gram
same,"Tissue distribution of radioactivity, Heart",120 min after injection,0.17 ± 0.02 percent dose per gram
same,"Tissue distribution of radioactivity, Kidney",120 min after injection,1.36 ± 0.27 percent dose per gram
same,"Tissue distribution of radioactivity, Liver",120 min after injection,0.58 ± 0.11 percent dose per gram
same,"Tissue distribution of radioactivity, Lung",120 min after injection,0.30 ± 0.08 percent dose per gram
same,"Tissue distribution of radioactivity, Muscle",120 min after injection,0.13 ± 0.007 percent dose per gram
same,"Tissue distribution of radioactivity, Pancreas",120 min after injection,2.88 ± 0.40 percent dose per gram
same,"Tissue distribution of radioactivity, Spleen",120 min after injection,0.47 ± 0.04 percent dose per gram
same,"Tissue distribution of radioactivity, Testis",120 min after injection,0.06 ± 0.005 percent dose per gram
same,brain uptake of radioactivity,normal rats,approximately 0.04 % ID/g
